This note sets out measurements from patent US10774053B2, “HIV protease inhibitors” (Gilead Sciences, Inc., priority 2017, dated 2020).

By EC50 is commonly meant the concentration needed to bring the measured effect to its halfway point.

Where two headings read alike, the source gives them in different places.

The test system of this assay is HIV-1 (IIIB) in MT-4 cells. Briefly: microbe, parasite or virus in culture. It counts as cell-based.
The mark [1] stands for this setting: Human immunodeficiency virus 1, IIIB, MT4, MT-4 cells, HIV-1, read-out: MT4 EC50.
[2] abbreviates: Human immunodeficiency virus 1, IIIB, MT4, read-out: MT4 EC50 (nM).
Where [3] appears, read: MT-4 cells, HIV-1, read-out: MT4 EC50.

In the case of `CC(C)(C)C[C@]1(c2ccc(-c3ccn(C4CC4)n3)cc2F)NC(=N)N([C@H](COC(=O)NC2(C(F)(F)F)CC2)c2ccc(Cl)c(-n3ncnc3C(F)F)c2)C1=O` [Compound 215], the EC50 under setting [1] was 18.5 nM.
Regarding `CC(C)(C)C[C@]1(c2ccc(-c3cnn(S(C)(=O)=O)c3)c(F)c2)NC(=N)N([C@H](COC(=O)NCC(F)(F)F)c2ccc(Cl)c(-n3ncnc3C(F)F)c2)C1=O` [Compound 300], the EC50 under setting [1] is 12.5 nM.
Still for that read-out and setting: the value for `CC(C)(C)C[C@]1(c2ccc(-c3cnn(C(F)F)c3)cc2)NC(=N)N([C@H](COC(=O)NC2(C)CC2)c2ccc(Cl)c(-n3ncnc3C(F)F)c2)C1=O` [Compound 178] was 9.99 nM.
Same read-out and setting: the value for `CC(C)(C)C[C@]1(c2ccc(-n3cncn3)cc2)NC(=N)N([C@H](COC(=O)NC2(C(F)(F)F)CC2)c2ccc(Cl)c(-n3ncnc3C(F)F)c2)C1=O` [Compound 229] was 27.6 nM.
Take `CC(C)(C)C[C@]1(c2ccc(-c3cnn(C(F)F)c3)cc2)NC(=N)N([C@H](COC(=O)Nc2ccccc2)c2ccc(Cl)c(-n3ncnc3C(F)F)c2)C1=O` [Compound 180]: the EC50 under setting [2] was 23.7 nM.
With `CC(C)(C)C[C@]1(c2ccc(-c3cnn(C(F)F)c3)cc2)NC(=N)N([C@H](COC(=O)NC(C)(C)C(F)F)c2ccc(Cl)c(-c3ncn(C(F)F)n3)c2)C1=O` [Compound 69], the EC50 under setting [1] amounted to 32.6 nM.
Still for that read-out and setting: under `CC(C)(C)C[C@]1(c2ccc(-c3cnn(C(F)F)c3)cc2)NC(=N)N([C@H](COC(=O)N2CC(C)(F)C2)c2ccc(Cl)c(-c3ncn[nH]3)c2)C1=O` [Compound 76] stands 34.8 nM; under `CC(C)(C)C[C@]1(c2ccc(C#N)cc2)NC(=N)N([C@H](COC(=O)NC2(C(F)(F)F)CC2)c2ccc(Cl)c(-n3ncnc3C(F)F)c2)C1=O` [Compound 280], 20.7 nM.
Turning to `[H]/N=C1\N[C@](CC(C)(C)C)(c2ccc(-c3cnn(C(F)F)c3)cc2F)C(=O)N1[C@H](COC(=O)NC1CC1)c1ccc(Cl)c(-c2ncn[nH]2)c1` [Compound 11], the EC50 under setting [1] amounted to 35.5 nM.
Same read-out and setting: under `CC(C)(C)C[C@]1(c2ccc(-c3cnn(C(F)F)c3)cc2)NC(=N)N([C@H](COC(=O)Nc2ccccn2)c2ccc(Cl)c(-n3ncnc3C(F)F)c2)C1=O` [Compound 181] stands 29 nM; under `CC1(C[C@]2(c3ccc(-c4cnn(C5CC5)c4)cc3)NC(=N)N([C@H](COC(=O)NC3(C(F)(F)F)CC3)c3ccc(Cl)c(-c4ncnn4C(F)F)c3)C2=O)CC1` [Compound 139], 28.1 nM.
For the compound `CC(C)(C[C@]1(c2ccc(-c3cnn(C4CC4)n3)cc2)NC(=N)N([C@H](COC(=O)NC2(C(F)(F)F)CC2)c2ccc(Cl)c(-c3ncnn3C3CC3)c2)C1=O)C(F)(F)F` [Compound 159], the EC50 under setting [1] came to 10.9 nM.
On the same count and under the same terms, the value for `CC(C)(C)C[C@]1(c2ccc(-c3cnn(C(F)F)c3)cc2)NC(=N)N([C@H](COC(=O)NC(C)(C)C(F)(F)F)c2ccc(Cl)c(-c3ncnn3C(F)F)c2)C1=O` [Compound 115] was 11.7 nM; that for `CC(C)(C)C[C@]1(c2ccc(N3CCn4c(nnc4C(F)(F)F)C3)cc2)NC(=N)N([C@H](COC(=O)NC2(C(F)(F)F)CC2)c2ccc(Cl)c(-n3ncnc3C(F)F)c2)C1=O` [Compound 326] was 52.9 nM.
For the compound `CC(C)(C)C[C@]1(c2ccc(-c3cn(C4CC4)nn3)cc2)NC(=N)N([C@H](COC(=O)NC2(C(F)(F)F)CC2)c2ccc(Cl)c(-n3ncnc3C(F)F)c2)C1=O` [Compound 232], under setting [3], the EC50 came to 18.2 nM.
Still for that read-out and setting: the value for `CC(C)(C)C[C@]1(c2ccc(-c3ccnn3C(F)F)cc2)NC(=N)N([C@H](COC(=O)NC2(C(F)(F)F)CC2)c2ccc(Cl)c(-n3ncnc3C(F)F)c2)C1=O` [Compound 213] was 25.5 nM.
Turning to `[H]/N=C1\N[C@](CC(C)(C)C)(c2ccc(-c3cnn(C(F)F)c3)cc2F)C(=O)N1[C@H](COC(=O)NC1CC1)c1ccc(Cl)c(-c2ncccc2Cl)c1` [Compound 13], the EC50 under setting [2] came out at 310 nM.
`CC(C)(C)C[C@]1(c2ccc(-c3cnn(C(F)F)c3)cc2)NC(=N)N([C@H](COC(=O)N[C@H]2CC23CC3)c2ccc(Cl)c(-n3ncnc3C(F)F)c2)C1=O` [Compound 342]: the EC50 under setting [1] worked out at 8.92 nM.
Still for that read-out and setting: the value for `CC(C)(C)C[C@]1(c2ccc(-c3cnn(C(F)F)c3)cc2)NC(=N)N([C@H](COC(=O)NC2(C)CC2)c2cccc(-n3ncnc3C(F)F)c2)C1=O` [Compound 375] was 30.8 nM; that for `CC(C)(C)C[C@]1(c2ccc(-c3cnn(C(F)F)c3)cc2)NC(=N)N([C@H](COC(=O)NC2(C)CC2)c2ccc(Cl)c(-n3cnc(C4CC4)n3)c2)C1=O` [Compound 239] was 604 nM.
On the same count and under the same terms, under `CC(C)(C)C[C@]1(c2ccc(-c3cnn(C(F)F)c3)cc2)NC(=N)N([C@H](COC(=O)NC2CC2)c2ccc(Cl)c(-c3cncn3C(F)F)c2)C1=O` [Compound 37] stands 219 nM; under `CC(C)(C)C[C@]1(c2ccc(-c3cnn(S(=O)(=O)C4CC4)c3)c(F)c2)NC(=N)N([C@H](COC(=O)NCC(F)(F)F)c2ccc(Cl)c(-n3ncnc3C(F)F)c2)C1=O` [Compound 302], 18.1 nM.
The same measure, in the same setting: under `CC(C)n1ncc(-c2ccc([C@@]3(CC(C)(C)C)NC(=N)N([C@H](COC(=O)NC4(C(F)(F)F)CC4)c4ccc(Cl)c(-n5ncnc5C(F)F)c4)C3=O)cc2)n1` [Compound 371] stands 26.7 nM; under `CC(C)(F)C[C@]1(c2ccc(-c3cnn(C4CC4)c3)cc2F)NC(=N)N([C@H](COC(=O)NC(C)(C)C(F)F)c2ccc(Cl)c(-c3ncnn3C(F)F)c2)C1=O` [Compound 133], 35.1 nM; under `CC(C)(C)C[C@]1(c2ccc(-c3cnn(C(F)F)c3)cc2)NC(=N)N([C@H](COC(=O)NC2CC2)c2ccc(Cl)c(-c3ncnn3C3CC3)c2)C1=O` [Compound 38], 9.83 nM.
As to `CC(C)(C)C[C@]1(c2ccc(-c3cnn(C4CC4)c3)c(F)c2)NC(=N)N([C@H](COC(=O)NCC(F)(F)F)c2ccc(Cl)c(-n3ncnc3C(F)F)c2)C1=O` [Compound 307], the EC50 under setting [1] turned out to be 12.7 nM.
The same measure, in the same setting: the value for `CC(C)(C)C[C@]1(c2ccc(-c3cnn(C(F)F)c3)cc2)NC(=N)N([C@H](COC(=O)N[C@@H]2CC2(F)F)c2ccc(Cl)c(-n3ncnc3C(F)F)c2)C1=O` (single isomer, unassigned) [Compound 334] was 8.98 nM.
For the compound `CC(C)(C)C[C@]1(c2ccc(-c3cnn(C(F)F)c3)cc2)NC(=N)N([C@H](COC(=O)NC2(C(F)(F)F)CC2)c2ccc(Cl)c(-c3ncn[nH]3)c2)C1=O` [Compound 25], under setting [2], the EC50 is 52.7 nM.
In the case of `C[C@H](NC(=O)OC[C@H](c1ccc(Cl)c(-n2ncnc2C(F)F)c1)N1C(=N)N[C@](CC(C)(C)C)(c2ccc(-c3cnn(C4CC4)c3)cc2)C1=O)C(F)(F)F` [Compound 234], the EC50 under setting [1] stood at 9.28 nM.
Still for that read-out and setting: under `CC(C)(C)C[C@]1(c2ccc(-c3cnn(C(F)F)c3)cc2)NC(=N)N([C@H](COC(=O)Nc2ccccc2)c2ccc(Cl)c(-c3ncn[nH]3)c2)C1=O` [Compound 107] stands 49.1 nM; under `CC(C)(C)C[C@]1(c2ccc(-c3cncs3)cc2F)NC(=N)N([C@H](COC(=O)NC2(C(F)(F)F)CC2)c2ccc(Cl)c(-n3ncnc3C(F)F)c2)C1=O` [Compound 199], 7.6 nM.
Still for that read-out and setting: under `Cn1ccc(-c2ccc([C@@]3(CC(C)(C)C)NC(=N)N([C@H](COC(=O)NC4(C(F)(F)F)CC4)c4ccc(Cl)c(-n5ncnc5C(F)F)c4)C3=O)c(F)c2)n1` [Compound 210] stands 6.94 nM; under `COc1ccc([C@@]2(CC(C)(C)C)NC(=N)N([C@H](COC(=O)N(C)C)c3ccc(Cl)c(-c4ccccn4)c3)C2=O)c(F)c1` [Compound 8], 277 nM; under `Cn1cc(-c2cc([C@@H](COC(=O)NC3CC3)N3C(=N)N[C@](CC(C)(C)C)(c4ccc(-c5cnn(C(F)F)c5)cc4)C3=O)ccc2Cl)nn1` [Compound 41], 18.1 nM.
On to `Cc1nnc(-c2cc([C@@H](COC(=O)NC3CC3)N3C(=N)N[C@](CC(C)(C)C)(c4ccc(-c5cnn(C(F)F)c5)cc4)C3=O)ccc2Cl)[nH]1` [Compound 40], for which, under setting [1], the EC50 was found to be 84.1 nM.
Consider `CC(C)(C)C[C@]1(c2ccc(-c3cnn(C(F)F)c3)cc2)NC(=N)N([C@H](COC(=O)NC(C)(C)C(F)(F)F)c2ccc(Cl)c(-c3ncn[nH]3)c2)C1=O` [Compound 45], for which, under setting [1], the EC50 is 31.7 nM.
Still for that read-out and setting: the value for `[2H]C([2H])([2H])OC(=O)NC[C@H](c1ccc(Cl)c(-n2ncnc2C(F)F)c1)N1C(=N)N[C@](CC(C)(C)C(F)(F)F)(c2ccc(-c3cnn(C4CC4)n3)cc2)C1=O` [Compound 393] was 27 nM.
Consider `[H]/N=C1\N[C@](CC(C)(C)C)(c2ccc(-c3cnn(C(F)F)c3)cc2F)C(=O)N1[C@H](COC(=O)NC1CC1)c1ccc(Cl)c(-c2ncccn2)c1` [Compound 14], for which the EC50 under setting [2] turned out to be 68.6 nM.
For the compound `[H]/N=C1\N[C@](CC(C)(C)C)(c2ccc(-c3cnn(C4CC4)c3)cc2)C(=O)N1[C@H](COC(=O)N1CC(F)(F)C1)c1ccc(Cl)c(-c2ccccn2)c1` [Compound 49], the EC50 under setting [1] was 68.1 nM.
Same read-out and setting: under `CC(C)(C)C[C@]1(c2ccc(-c3cnn(C4CC4)n3)cc2F)NC(=N)N([C@H](COC(=O)NC2(C(F)(F)F)CC2)c2ccc(Cl)c(-c3ncnn3C(F)F)c2)C1=O` [Compound 143] stands 9.59 nM; under `CC(C)(C)C[C@]1(c2ccc(-c3cnn(C4CC4)c3)cc2)NC(=N)N([C@H](COC(=O)N2CC(F)(F)C2)c2ccc(Cl)c(-c3ncn[nH]3)c2)C1=O` [Compound 77], 38.9 nM; under `CC(C)(C)C[C@]1(c2ccc(-c3cnn(C(F)F)c3)cc2)NC(=N)N([C@H](COC(=O)N2CC(F)(F)C2)c2ccc(Cl)c(-c3ncn[nH]3)c2)C1=O` [Compound 67], 20.8 nM.
The same measure, in the same setting: under `Cc1ncnn1-c1cc([C@@H](COC(=O)NC2(C(F)F)CC2)N2C(=N)N[C@](CC(C)(C)C)(c3ccc(-c4cnn(C(F)F)c4)cc3)C2=O)ccc1Cl` [Compound 254] stands 18 nM; under `C[C@@H](NC(=O)OC[C@H](c1ccc(Cl)c(-n2ncnc2C(F)F)c1)N1C(=N)N[C@](CC(C)(C)C)(c2ccc(-c3cnn(C(F)F)c3)cc2)C1=O)C(F)(F)F` [Compound 310], 20.3 nM.
Same read-out and setting: under `CC(C)(C)C[C@]1(c2ccc(-c3ncccn3)cc2)NC(=N)N([C@H](COC(=O)N2CC(F)(F)C2)c2ccc(Cl)c(-c3ncn[nH]3)c2)C1=O` [Compound 104] stands 33.5 nM.
